# From US8609733B2, “Sensory-specific local anesthesia and prolonged duration local anesthesia” (Massachusetts Institute of Technology, priority 2008, dated 2013)
# Values joined by “and” are separate entries in the source; they are usually repeats but may differ in a detail not shown here. Identical values can stand only once.
# Key:
# Assay type in all cases: in vivo, Sprague-Dawley rats
# sciatic nerve [1] = assay: Sensory selectivity of sciatic nerve blockade (thermal nociceptive versus motor block); conditions: for selective thermal nociceptive blockade as compared to motor blockade: in combination with OTAB (Example 3: 100 mM QX-222, 30 mM OTAB)
# Protocol: (§1) Animals were cared for in compliance with protocols approved by the Massachusetts Institute of Technology (MIT) Committee on Animal Care, in conformity with the NIH guidelines for the care and use of laboratory animals (NIH publication #85-23, revised 1985). Rats were anesthetized using isoflurane in oxygen. A 25-gauge needle was introduced posteromedial to the greater trochanter, and 300 μL of the QX-314+/−enhancer solution was injected upon contacting bone. To determine the effect of QX-314 on sensory and motor blockade, animals were injected with QX-314 at different concentrations. To determine the effect of the chemical penetration enhancer (OTAB) on the sensory and motor blockade produced by QX-314, animals were injected with different concentrations of OTAB, with the concentration of QX-314 kept constant at 25 mM.
# (§2) In all experiments, the experimenter was blinded as to what treatment any given rat had received. Presence and extent of nerve blockade was investigated as previously described (Kohane, et al., Anesthesiology, 89:1199-1208 (1998); Padera, et al., Muscle Nerve, 34:747-53 (2006); Kohane, et al., Anesthesiology, 89:119-31 (1998); Masters, et al., Anesthesiology, 79(2):340-346 (1993)). Briefly, thermal nociception of each leg was assessed, with the right (uninjected) leg serving as an untreated control.
# (§3) Thermal nociception was assessed by a modified hotplate test. Hind paws were exposed in sequence (left then right) to a 56° C. hot plate (Model 39D Hot Plate Analgesia Meter, IITC Inc., Woodland Hills, Calif.). The time (latency) until paw withdrawal was measured with a stopwatch.
# (§4) The duration of thermal nociceptive block was calculated as the time required for thermal latency to return to a value of 7 seconds from a higher value. Seven seconds is the midpoint between a baseline thermal latency of approximately 2 seconds in adult rats and a Maximal latency of 12 seconds. Latencies greater than 7 sec were considered to be effective blocks.
# (§5) The rat was held with its posterior placed at a digital balance on which it could bear weight with one hindpaw at a time. The maximum weight that the rat could bear without its ankle touching the balance was measured.
# (§6) Methods were as described in Example 1.
# (§7) To establish that the selective block could be obtained with other local anesthetics, the methods of example 1 were performed using 100 mM QX-222 and 30 mM OTAB, and compared to the results obtained using 100 mM […] and 30 mM OTAB.
# sciatic nerve [2] = assay: Duration of thermal nociceptive (sensory) block after sciatic nerve injection, modified hotplate test
# Protocol: (§8) Young adult male Sprague-Dawley rats (350-420 g) were obtained from Charles River Laboratories (Wilmington, Mass.) and housed in groups of two per cage on a 6 a.m. to 6 p.m. light/dark cycle. All animals were cared for in accordance with protocols approved institutionally and nationally.
# (§9) QX-314 and octyltriethylammonium bromide (OTAB) (Sigma) solutions were prepared in saline individually and in combination with each enhancer the night before scheduled injections.
# as §1, §2, §3, §4, §6, §7
# sciatic nerve [3] = assay: Duration of motor block after sciatic nerve injection, extensor postural thrust (EPT)
# Protocol: as §8, §9, §1, §2, §5, §6, §7
# [4] = 25 mM QX-314 co-injected with 5 mM SOS
# [5] = 25 mM QX-314 co-injected with 10 mM SOS
# [6] = 25 mM QX-314 co-injected with 0.5% TWEEN 20
# [7] = QX-314 without CPE, different concentrations, 300 μl
smiles,measurement,setting,value
"Cc1cccc(C)c1NC(=O)C[N+](C)(C)C [QX-222, 2-((2,6-dimethylphenyl)amino)-N,N,N-trimethyl-2-oxoethanaminium]",selective thermal nociceptive blockade as compared to motor blockade,sciatic nerve [1],Comparable selective thermal nociceptive blockade
"CC[N+](CC)(CC)CC(=O)Nc1c(C)cccc1C [QX-314, N-(2,6)dimethylphenylcarbamoylmethyl triethylammonium bromide]",sensory block,sciatic nerve [2]; [4],235 min
same,sensory block,sciatic nerve [2]; [5],870 min
same,sensory DEB (duration of effective block),sciatic nerve [2]; 25 mM QX-314 co-injected with 20 mM OTAB,428 min and 406 min
same,duration of sensory block,sciatic nerve [2]; 25 mM QX-314 co-injected with 30 mM OTAB,450 min
same,median sensory blockade,sciatic nerve [2]; [6],269 min
same,sensory duration of block versus concentration,sciatic nerve [2]; [7],concentration-dependent increase
same,duration of motor block,"sciatic nerve [3]; 25 mM QX-314 alone, 300 μL at the sciatic nerve, rat",165 min
same,motor block,sciatic nerve [3]; [4],0 min
same,motor block,sciatic nerve [3]; [5],532 min
same,motor effect,sciatic nerve [3]; 25 mM QX-314 co-injected with 20 mM or 30 mM OTAB,little or no motor effect
same,median motor blockade,sciatic nerve [3]; [6],0 min
same,motor duration of block versus concentration,sciatic nerve [3]; [7],concentration-dependent increase
same,sensory selectivity,"sciatic nerve [1]; 25 mM QX-314 co-injected with SOS 5, 10, 20, 30 mM",sensory selectivity at all concentrations of SOS
same,sensory specificity,sciatic nerve [1]; 25 mM QX-314 with higher OTAB concentrations (>30 mM),no sensory specificity
same,specificity of block,sciatic nerve [1]; 25 mM QX-314 with higher SOS concentrations (10-30 mM),initially non-specific
same,sensory versus motor block duration,sciatic nerve [1]; 25 mM QX-314 with lower concentrations of OTAB (10-30 mM),"significant increase in sensory block duration, without a corresponding increase in motor block duration"
same,modality specificity,sciatic nerve [1]; QX-314 in the absence of a CPE,no evidence of modality specificity
same,TWEEN 20 concentration of maximum sensory specificity (optimal),sciatic nerve [1]; co-injected with 25 mM QX-314,0.5%
same,selective thermal nociceptive blockade as compared to motor blockade,sciatic nerve [1],Comparable selective thermal nociceptive blockade
same,SOS concentration range with sensory selectivity,sciatic nerve [1]; with 25 mM QX-314,1 to 50 mM
same,optimal OTAB concentration for sensory selectivity,sciatic nerve [1]; with 25 mM QX-314,20 mM
